Results from the NIST ThermoML archive (doi:10.1021/acs.jced.8b00713).

Conditions: Liquid; for viscosity: Vibrating wire viscometry; for mass density: Vibrating tube method

FC(F)(F)/C=C\C(F)(F)F [(Z)-1,1,1,4,4,4-hexafluorobut-2-ene]
Conditions | mass density [kg/m3] | viscosity [mPa·s]
253.14 K, 15000 kPa | – | 0.7477
253.14 K, 20000 kPa | – | 0.7916
253.15 K, 100 kPa | – | 0.6315
253.15 K, 5000 kPa | – | 0.6695
253.15 K, 25000 kPa | – | 0.8337
253.15 K, 30100 kPa | – | 0.871
253.16 K, 1000 kPa | – | 0.6387
253.16 K, 2000 kPa | – | 0.647
253.16 K, 10000 kPa | – | 0.7114
253.16 K, 40000 kPa | – | 0.9576
263.14 K, 2000 kPa | – | 0.5721
263.14 K, 5000 kPa | – | 0.5916
263.14 K, 30000 kPa | – | 0.7644
263.15 K, 100 kPa | – | 0.5599
263.15 K, 1000 kPa | – | 0.5656
263.15 K, 10000 kPa | – | 0.6247
263.15 K, 15000 kPa | – | 0.6579
263.15 K, 20000 kPa | – | 0.6906
263.16 K, 25000 kPa | – | 0.7286
263.16 K, 40000 kPa | – | 0.8352
273.13 K, 100 kPa | – | 0.493
273.13 K, 10000 kPa | – | 0.5526
273.14 K, 1000 kPa | – | 0.4975
273.14 K, 15000 kPa | – | 0.584
273.14 K, 25000 kPa | – | 0.643
273.14 K, 29700 kPa | – | 0.6776
273.15 K, 5000 kPa | – | 0.5227
273.15 K, 20000 kPa | – | 0.6131
273.16 K, 2000 kPa | – | 0.5035
273.16 K, 40000 kPa | – | 0.7422
283.14 K, 15000 kPa | – | 0.5206
283.14 K, 20000 kPa | – | 0.547
283.15 K, 100 kPa | 1402.57 | –
283.15 K, 1000 kPa | 1405.16 | –
283.15 K, 2000 kPa | 1408.09 | 0.446
283.15 K, 5000 kPa | 1416.4 | 0.462
283.15 K, 10000 kPa | 1429.39 | 0.49
283.15 K, 15000 kPa | 1441.21 | –
283.15 K, 20000 kPa | 1452.25 | –
283.15 K, 25000 kPa | 1462.46 | 0.5731
283.15 K, 30000 kPa | 1472 | 0.6009
283.15 K, 40000 kPa | 1489.73 | 0.6578
283.15 K, 50000 kPa | 1505.53 | –
283.15 K, 60000 kPa | 1520.01 | –
283.15 K, 80000 kPa | 1545.15 | –
283.15 K, 100000 kPa | 1566.76 | –
283.16 K, 100 kPa | – | 0.4357
283.17 K, 1000 kPa | – | 0.4423
293.15 K, 100 kPa | 1377.12 | –
293.15 K, 1000 kPa | 1380.09 | 0.3924
293.15 K, 2000 kPa | 1383.27 | 0.3978
293.15 K, 5000 kPa | 1392.34 | –
293.15 K, 10000 kPa | 1406.41 | 0.4385
293.15 K, 15000 kPa | 1419.13 | –
293.15 K, 15100 kPa | – | 0.4651
293.15 K, 20000 kPa | 1430.86 | –
293.15 K, 25000 kPa | 1441.76 | 0.5151
293.15 K, 30000 kPa | 1451.97 | 0.5414
293.15 K, 40000 kPa | – | 0.5919
293.15 K, 60000 kPa | 1501.97 | –
293.15 K, 80010 kPa | 1528.17 | –
293.15 K, 99990 kPa | 1550.16 | –
293.16 K, 200 kPa | – | 0.388
293.16 K, 5000 kPa | – | 0.4135
293.16 K, 20000 kPa | – | 0.4904
293.16 K, 40000 kPa | 1470.38 | –
293.16 K, 50000 kPa | 1486.98 | –
303.14 K, 20000 kPa | – | 0.441
303.15 K, 100 kPa | 1351.47 | –
303.15 K, 200 kPa | – | 0.3454
303.15 K, 1000 kPa | 1354.72 | 0.3494
303.15 K, 5000 kPa | – | 0.3692
303.15 K, 10000 kPa | 1383.63 | –
303.15 K, 15000 kPa | 1397.49 | 0.4173
303.15 K, 25000 kPa | 1421.76 | 0.4647
303.15 K, 30000 kPa | 1432.55 | 0.4879
303.15 K, 40000 kPa | – | 0.5357
303.15 K, 50000 kPa | 1469.43 | –
303.15 K, 60000 kPa | 1485.09 | –
303.15 K, 80000 kPa | 1512.19 | –
303.15 K, 100010 kPa | 1535.09 | –
303.16 K, 2000 kPa | 1358.24 | 0.3548
303.16 K, 5000 kPa | 1368.33 | –
303.16 K, 20000 kPa | 1410.02 | –
303.16 K, 40000 kPa | 1452.02 | –
303.17 K, 10000 kPa | – | 0.3938
313.14 K, 1000 kPa | 1327.46 | –
313.14 K, 100010 kPa | 1519.55 | –
313.15 K, 500 kPa | 1325.41 | 0.31
313.15 K, 1000 kPa | – | 0.3121
313.15 K, 2000 kPa | 1331.4 | 0.3173
313.15 K, 5000 kPa | 1342.64 | 0.3312
313.15 K, 10000 kPa | 1359.5 | –
313.15 K, 15000 kPa | 1374.49 | 0.3776
313.15 K, 20000 kPa | 1388.16 | 0.3989
313.15 K, 25000 kPa | 1400.64 | 0.421
313.15 K, 30000 kPa | 1412.04 | 0.4431
313.15 K, 40000 kPa | 1432.78 | 0.4866
313.15 K, 80010 kPa | 1495.94 | –
313.16 K, 10000 kPa | – | 0.3543
313.16 K, 50000 kPa | 1451.06 | –
313.16 K, 60000 kPa | 1467.37 | –
323.14 K, 5000 kPa | 1317.21 | –
323.14 K, 10000 kPa | 1335.83 | –
323.14 K, 20000 kPa | – | 0.3632
323.15 K, 500 kPa | 1297.83 | –
323.15 K, 1000 kPa | 1300.12 | –
323.15 K, 5000 kPa | – | 0.2981
323.15 K, 10000 kPa | – | 0.322
323.15 K, 15000 kPa | 1352.25 | 0.3425
323.15 K, 20000 kPa | 1366.96 | –
323.15 K, 25000 kPa | 1380.35 | 0.3839
323.15 K, 30000 kPa | 1392.69 | 0.4043
323.15 K, 40000 kPa | 1414.6 | –
323.15 K, 50000 kPa | 1433.91 | –
323.15 K, 80010 kPa | 1480.77 | –
323.15 K, 100010 kPa | 1505.41 | –
323.16 K, 500 kPa | – | 0.2776
323.16 K, 1000 kPa | – | 0.28
323.16 K, 2000 kPa | 1304.59 | 0.2844
323.16 K, 40000 kPa | – | 0.445
323.16 K, 60000 kPa | 1451.12 | –
333.14 K, 500 kPa | – | 0.2497
333.15 K, 1000 kPa | 1271.96 | 0.2521
333.15 K, 5000 kPa | 1291.31 | 0.2705
333.15 K, 10000 kPa | – | 0.2917
333.15 K, 15000 kPa | – | 0.3126
333.15 K, 20000 kPa | 1346 | 0.3321
333.15 K, 25000 kPa | 1360.41 | 0.3512
333.15 K, 30000 kPa | 1373.57 | 0.3741
333.15 K, 40000 kPa | 1396.93 | 0.41
333.15 K, 50000 kPa | 1417.34 | –
333.15 K, 60000 kPa | 1435.25 | –
333.15 K, 80000 kPa | 1466.47 | –
333.15 K, 100000 kPa | 1492.09 | –
333.16 K, 500 kPa | 1269.32 | –
333.16 K, 2000 kPa | 1277.07 | 0.2568
333.16 K, 10000 kPa | 1312.03 | –
333.16 K, 15000 kPa | 1330.02 | –
343.15 K, 1000 kPa | – | 0.2262
343.15 K, 2000 kPa | 1248.57 | 0.2308
343.15 K, 5000 kPa | – | 0.2443
343.15 K, 10000 kPa | – | 0.2663
343.15 K, 15000 kPa | 1307.63 | 0.2864
343.15 K, 20000 kPa | – | 0.3054
343.15 K, 25000 kPa | – | 0.3246
343.15 K, 30000 kPa | – | 0.3429
343.15 K, 40000 kPa | 1379.44 | 0.3794
343.15 K, 50000 kPa | 1400.93 | –
343.15 K, 60000 kPa | 1419.91 | –
343.15 K, 80000 kPa | 1452.33 | –
343.15 K, 100000 kPa | 1478.79 | –
343.16 K, 500 kPa | 1239.61 | 0.224
343.16 K, 1000 kPa | 1242.66 | –
343.16 K, 5000 kPa | 1264.73 | –
343.16 K, 10000 kPa | 1287.86 | –
343.16 K, 20000 kPa | 1324.98 | –
343.16 K, 25000 kPa | 1340.52 | –
343.16 K, 30000 kPa | 1354.59 | –
353.14 K, 2000 kPa | – | 0.2104
353.15 K, 1000 kPa | 1211.33 | –
353.15 K, 2000 kPa | 1218.18 | –
353.15 K, 5000 kPa | – | 0.221
353.15 K, 10000 kPa | – | 0.2419
353.15 K, 15000 kPa | 1284.42 | 0.2623
353.15 K, 20000 kPa | – | 0.2801
353.15 K, 25000 kPa | 1320.02 | –
353.15 K, 30000 kPa | 1335.13 | 0.3157
353.15 K, 40000 kPa | 1361.5 | 0.3504
353.15 K, 50000 kPa | 1384.21 | –
353.15 K, 60000 kPa | 1404.05 | –
353.15 K, 80010 kPa | 1438.01 | –
353.15 K, 100000 kPa | 1465.73 | –
353.16 K, 1000 kPa | – | 0.2057
353.16 K, 5000 kPa | 1236.75 | –
353.16 K, 10000 kPa | 1262.64 | –
353.16 K, 20000 kPa | 1303.28 | –
353.16 K, 25000 kPa | – | 0.2983
363.15 K, 1000 kPa | 1177.46 | –
363.15 K, 10000 kPa | 1236.32 | –
363.15 K, 25000 kPa | 1298.98 | –
363.15 K, 30000 kPa | 1315.14 | –
363.15 K, 60000 kPa | 1387.96 | –
363.15 K, 79990 kPa | 1423.19 | –
363.16 K, 2000 kPa | 1185.52 | –
363.16 K, 5000 kPa | 1207.05 | –
363.16 K, 15000 kPa | 1260.38 | –
363.16 K, 20000 kPa | 1280.92 | –
363.16 K, 40000 kPa | 1343.17 | –
363.16 K, 50000 kPa | 1367.09 | –
363.16 K, 100000 kPa | 1451.81 | –
373.15 K, 1000 kPa | 1140.74 | –
373.15 K, 5000 kPa | 1175.78 | –
373.15 K, 10020 kPa | 1209.06 | –
373.15 K, 15000 kPa | 1235.47 | –
373.15 K, 25000 kPa | 1277.24 | –
373.15 K, 30000 kPa | 1294.44 | –
373.15 K, 50000 kPa | 1349.23 | –
373.15 K, 60000 kPa | 1370.99 | –
373.15 K, 80010 kPa | 1407.73 | –
373.15 K, 100010 kPa | 1437.36 | –
373.16 K, 2000 kPa | 1150.47 | –
373.16 K, 20020 kPa | 1257.86 | –
373.16 K, 40000 kPa | 1324.14 | –
